How the values were obtained:
[1] = system: collagen-induced arthritis models; test: Collagen-induced arthritis models; type: in vivo, DBA/1J mice; settings: 30 mg/kg twice a day
Experimental: An emulsion was prepared by mixing bovine collagen type II (Chondrex) and complete Freund's adjuvant (Chondrex) at a ratio of 1:1 until the […] using a 1 ml pipette. Each 100 μL of emulsion was intradermally injected into the tail of DBA/1J mice for the first immunization. After 21 days, an emulsion was prepared by mixing bovine collagen type II and incomplete Freund's adjuvant (Chondrex) at a ratio of 1:1 by the same method as above. Each of 100 μL of emulsion was intradermally injected into the upper part of the tail of DBA/1J mice for the second boosting immunization. After the second boosting immunization, the mice were grouped according to body weight, the test drug was administered to each group, and the effects of the test drugs were measured by measuring the clinical score and the body weight. The clinical scores were assigned from 0 to 4, and the total clinical score was determined by evaluating the feet of each mouse and summing up the scores (normal: 0, most severe edema: 16). That is, the efficacy in the arthritis models was evaluated with the severity of edema of the joint, and a higher score was assigned to more severe edema.

colitis models = test: Colitis models (dextran sulfate sodium); type: in vivo, C57BL/6J mice; settings: intraperitoneally twice a day after 8 days from supply of DSS; disease-induced models lost to 17.5 to 18 g
Experimental: 3.0% dextran sulfate sodium (DSS: MP biomedicals) was dissolved in deionized water and supplied to 9-week-old C57BL/6J mice for 5 to 7 days and then water was normally supplied to the mice to induce colitis in animal models. The experimental animals were classified into a solvent control group and each group treated with Compound 254 and Compound 255 as test materials based on the body weight of the experimental animals. The test material was intraperitoneally injected twice a day after 8 days from the supply of DSS. The evaluation of the efficacy in colitis models was made by determining the degree to which the weight, lost due to the disease, was recovered to normal level, and the results are shown in FIG. 6.

HDAC 6 = target: T1, HDAC 6 (Homo sapiens, UniProt Q9UBN7); test: Test of HDAC activities, HDAC6 (fluorimetric); type: biochemical; parameters: purchased Calbiochem 382180; settings: samples at 0.1, 1, 10, 100, 1000 nM; 37° C. 60 minutes; fluorescence Ex 390, Em 460; read-out: HDAC inhibitory activities, HDAC6
T1 sequence (Q9UBN7 1-1215): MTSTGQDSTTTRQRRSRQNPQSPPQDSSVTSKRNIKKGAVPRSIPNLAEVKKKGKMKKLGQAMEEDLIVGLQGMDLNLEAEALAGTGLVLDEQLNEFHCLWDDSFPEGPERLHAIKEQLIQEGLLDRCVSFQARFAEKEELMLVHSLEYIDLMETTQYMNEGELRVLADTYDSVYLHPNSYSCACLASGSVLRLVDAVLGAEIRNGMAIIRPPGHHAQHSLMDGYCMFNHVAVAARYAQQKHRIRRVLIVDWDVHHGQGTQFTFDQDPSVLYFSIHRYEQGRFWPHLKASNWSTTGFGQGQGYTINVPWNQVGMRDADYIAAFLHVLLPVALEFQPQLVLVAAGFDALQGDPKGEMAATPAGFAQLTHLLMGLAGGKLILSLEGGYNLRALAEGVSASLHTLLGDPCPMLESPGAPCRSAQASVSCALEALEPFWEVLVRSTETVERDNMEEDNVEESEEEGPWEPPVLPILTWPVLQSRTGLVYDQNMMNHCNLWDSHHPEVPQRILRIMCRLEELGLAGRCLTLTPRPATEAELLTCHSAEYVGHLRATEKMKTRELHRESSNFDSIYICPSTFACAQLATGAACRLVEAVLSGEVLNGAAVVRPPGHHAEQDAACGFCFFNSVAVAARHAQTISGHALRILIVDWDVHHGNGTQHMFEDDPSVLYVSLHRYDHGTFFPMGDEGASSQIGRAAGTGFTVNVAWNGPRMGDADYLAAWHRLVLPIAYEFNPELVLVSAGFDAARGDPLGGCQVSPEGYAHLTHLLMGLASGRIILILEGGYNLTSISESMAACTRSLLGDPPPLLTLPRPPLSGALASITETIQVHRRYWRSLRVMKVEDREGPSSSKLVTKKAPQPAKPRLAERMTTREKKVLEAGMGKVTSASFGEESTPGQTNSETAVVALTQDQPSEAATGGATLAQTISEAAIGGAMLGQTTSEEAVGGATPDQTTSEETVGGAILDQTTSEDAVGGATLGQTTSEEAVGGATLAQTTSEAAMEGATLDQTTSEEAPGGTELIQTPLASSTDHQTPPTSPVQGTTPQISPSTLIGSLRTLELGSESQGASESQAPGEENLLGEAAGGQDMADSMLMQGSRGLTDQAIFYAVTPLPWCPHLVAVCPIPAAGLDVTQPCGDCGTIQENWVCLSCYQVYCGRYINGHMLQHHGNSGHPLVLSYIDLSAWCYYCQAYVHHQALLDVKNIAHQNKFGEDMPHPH
Outline: (§1)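 HDAC1 tested at 100, 1000 and 10000 nM; recombinant human HDAC6 at 0.1, 1, 10, 100 and 1000 nM. Reaction 60 min at 37° C, then developer for 30 min at 37° C; fluorescence read at Ex 390/Em 460.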

HDAC1 = HDAC1 (Homo sapiens, UniProt Q13547); test: Test of HDAC activities, HDAC1 Fluorimetric Drug Discovery Assay Kit; type: biochemical; parameters: purchased Enzolifesciences BML-AK511; settings: samples at 100, 1000, 10000 nM; 37° C. 60 minutes; fluorescence Ex 390, Em 460; read-out: HDAC inhibitory activities, HDAC1
Outline: as §1

HDAC1, sequence (Q13547 whole entry): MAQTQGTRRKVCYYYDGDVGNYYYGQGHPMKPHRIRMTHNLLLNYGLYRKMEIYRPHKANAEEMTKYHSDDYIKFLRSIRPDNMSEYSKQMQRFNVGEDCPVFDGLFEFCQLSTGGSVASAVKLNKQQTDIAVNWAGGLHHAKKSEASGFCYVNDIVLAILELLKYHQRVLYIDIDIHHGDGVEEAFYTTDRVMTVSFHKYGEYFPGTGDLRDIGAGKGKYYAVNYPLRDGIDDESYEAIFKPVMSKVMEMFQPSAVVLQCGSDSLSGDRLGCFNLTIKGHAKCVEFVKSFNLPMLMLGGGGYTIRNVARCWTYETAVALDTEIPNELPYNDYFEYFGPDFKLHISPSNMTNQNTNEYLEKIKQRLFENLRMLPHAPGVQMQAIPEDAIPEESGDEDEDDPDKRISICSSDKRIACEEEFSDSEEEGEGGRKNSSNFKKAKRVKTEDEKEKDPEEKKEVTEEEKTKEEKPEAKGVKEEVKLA

- IC50 (HDAC 6): 2 nM
- IC50 (HDAC1): 173 nM
Compound: Cn1ncc2ccc(-c3cccc(N(Cc4ccc(C(=O)NO)cc4)C(=O)N4CCOCC4)c3)cc21 [Compound 254, N-(4-(hydroxycarbamoyl)benzyl)-N-(3-(1-methyl-1H-indazol-6-yl)phenyl)morpholine-4-carboxamide]
- arthritis symptoms improved by ([1]; versus vehicle group): more than 40%
- clinical score ([1]; score 0 to 16, vehicle group 11.6): 6.4
- weight recovered to (colitis models): 18.5 to 19.0 g
